Results taken from patent US20160331742A1, “TREATMENT OF CROHN'S DISEASE USING LOW DOSES OF LAQUINIMOD” (Teva Pharmaceutical Industries, Ltd., priority 2014, published 2016).

Experiments:
[1] = test system: subjects suffering from active moderate to severe Crohn's disease; experiment: Phase III randomized, double-blind, placebo-controlled study of oral laquinimod in active moderate to severe Crohn's disease (12 weeks); assay type: in vivo, human; details: 0.25 mg/day oral vs 0.5 mg/day, Example 1
Description: A phase III, multicenter, randomized, double-blind, placebo-controlled study is conducted to evaluate Laquinimod in active moderate to severe Crohn's disease. There are ˜540 Crohn's disease patients enrolled, divided into 3 arms of ˜180 patients, randomized in a […] ratio (˜180 subjects on laquinimod 0.25 mg, ˜180 on laquinimod 0.5 mg, and ˜180 on placebo). One or more capsules containing laquinimod 0.25 mg, laquinimod 0.5 mg, or matching placebo are administered orally once daily; A loading dose regimen of double the maintenance/intended dose is given during the first two days of study drug treatment. Thereafter, starting on day 3, the daily maintenance/intended dose is administered. Patients with moderate to severe Crohn's disease (CD), as determined by a Crohn's Disease Activity Index (CDM) score of 220-450 (inclusive) and evidence of active endoscopic inflammatory disease, based on Crohn's Disease Endoscopic index of Severity (CDEIS) score >6 points. […] The timing of the ileocelonosoopy is arranged so that it takes place after the last day on which data are recorded for the CDAI assessment. […] Each endoscopy is recorded, and then read and scored by a central reader for endoscopic scores of CDEIS and SES-CD. […]

[2] = test system: subjects suffering from active moderate to severe Crohn's disease; experiment: Phase III randomized, double-blind, placebo-controlled 52-week maintenance of remission study of laquinimod in Crohn's disease patients; assay type: in vivo, human; details: 0.25 mg/day oral vs 0.5 mg/day, Example 2
Description: A phase III, randomized, double-blind, placebo-controlled 52-week maintenance of remission study of laquinimod is conducted in Crohn's disease patients.
One or more capsules containing laquinimod 0.25 mg, laquinimod 0.5 mg, or matching placebo are administered orally once daily (QD)
Patients with a Response at Week 12 in any of the induction studies, TV5500-IMM-30009, TV5600-IMM-30012, or TV5500-IMM-10013, are re-randomized into this placebo-controlled maintenance study. Response at Week 12 in those induction studies is defined as a Crohn's Disease Activity Index (CDAI) reduction of at least 10 points from Baseline at Week 12. No new patients are included in this maintenance study. […]
Ileonclonoscopy is performed at Baseline Week 12b Visit from the induction study) and Week 52 to directly assess endoscopic disease and mucosal healing. The timing of the ileocolonoscopy is arranged so that it takes place after the final day on which data is recorded for the Week 52 CDAI assessment, and allows time for adequate ileocolonoscopy preparation; consequently, the Week 52 ileocolcnoscopy is performed separately from but within 7 days of) the other Week 52 assessments each endosoopy is recorded, read, and scored by a central reader for an endoscopic score of cDEIS, and mucosal healing determination, […]

[3] = test system: subjects suffering from active moderate to severe Crohn's disease; experiment: Phase III open-label 64-week induction and maintenance study of laquinimod in Crohn's disease patients; assay type: in vivo, human; details: 0.25 mg/day oral vs 0.5 mg/day, Example 3
Description: A phase III, randomized, open-label 64-week induction and maintenance study of laquinimod is conducted in Crohn's disease patients,
One capsule containing laquinimod 0.25 mg or laquinimod 0.5 mg is administered orally once daily at the same hour:
Response at Week 12 in those induction studies is defined as a Crohn's Disease Activity Index (COAT) reduction, of at least 70 points from Baseline. It is anticipated that many non-responders received placebo in the induction studies, so that TV5600-IMM-30011 is their first opportunity to be exposed to any dose of laquinimod. No new patients are included in this study.
Treatment duration is up to 64 weeks. The initial phase of the treatment duration is 12 weeks. Scheduled in-clinic visits are conducted at Baseline (Week 0, Visit 1) and at Weeks 2, 4, 8, and 12. The Baseline visit (Week 0, Visit 1) for this study is the same as the Week 12 visit in the relevant induction study (i.e., not an additional visit). Some additional procedures may be performed on this day, as a part of the TV5600-114M-30011 protocol but not the induction study protocol. Unscheduled visits for safety or for any other reason are conducted at any time during the study. At Week 12 (and at subsequent visits), patients undergo a clinical assessment and are offered either release from the study or continuation of maintenance therapy at the existing dose. […]

[4] = cited from earlier work

CCN(C(=O)c1c(O)c2c(Cl)cccc2n(C)c1=O)c1ccccc1 [laquinimod]
adverse effects of 0.25 mg/day as compared to 0.5 mg/day [1]: maintaining or reducing adverse effects | efficacy of 0.25 mg/day as compared to 0.5 mg/day (symptoms, clinical response, remission, CDAI, CDEIS, mucosal healing, CRP, fecal calprotectin, IBDQ, WPAI:CD, EQ-5D) [1]: at least as effective, or more effective | adverse effects of 0.25 mg/day as compared to 0.5 mg/day [2]: maintaining or reducing adverse effects | efficacy of 0.25 mg/day as compared to 0.5 mg/day (symptoms, clinical response, remission, CDAI, CDEIS, mucosal healing, CRP, fecal calprotectin, IBDQ, WPAI:CD, EQ-5D) [2]: at least as effective, or more effective | adverse effects of 0.25 mg/day as compared to 0.5 mg/day [3]: maintaining or reducing adverse effects | efficacy of 0.25 mg/day as compared to 0.5 mg/day (symptoms, clinical response, remission, CDAI, CRP, fecal calprotectin, IBDQ, WPAI:CD, EQ-5D) [3]: at least as effective, or mare effective | oral bioavailability [4]: high
